Experimental data: patent US10829778B2, “Plants having increased tolerance to herbicides” (BASF SE, priority 2013, dated 2020)

Legend:
[1] = target: T1, Arabidopsis HPPD (SEQ ID: 53) F381L (Arabidopsis thaliana, UniProt P93836, F381L); assay: HPPD activity assay, mutant enzyme; type: biochemical; details: Table 15, normalized to Arabidopsis wild-type
T1 construct: PCR-based site directed mutagenesis of pEXP5-NT/TOPO®-AtHPPD; His6 (N); made in house; host or cells: E. coli BL21 (DE3)
Protocol: (§1) HPPD produces homogentisic acid and CO2 from 4-hydroxyphenylpyruvate (4-HPP) and O2. The activity assay for HPPD is based on the analysis of homogentisic acid by reversed phase HPLC.
(§2) The assay mixture can contain 150 mM potassium phosphate buffer pH 7.0, 50 mM L-ascorbic acid, 100 μM Catalase (Sigma-Aldrich), 1 μM FeSO4 and 0.2 units of purified HPPD enzyme in a total volume of 505 μl. 1 unit is defined as the amount of enzyme that is required to produce 1 nmol of HGA per minute at 20° C.
(§3) After a preincubation of 30 min the reaction is started by adding 4-HPP to a final concentration of 0.05 mM. The reaction is allowed to proceed for 45 min at room temperature. The reaction is stopped by the addition of 50 μl of 4.5 M phosphoric acid. The sample is filtered using a […] pore size PVDF filtration device.
(§4) 5 μl of the cleared sample is analyzed on an UPLC HSS T3 column (particle size 1.8 μm, dimensions 2.1×50 mm; Waters) by isocratic elution using 90% 20 mM NaH2PO4 pH 2.2, 10% methanol (v/v).
(§5) HGA is detected electrochemically at 750 mV (mode: DC; polarity: positive) and quantified by integrating peak areas (Empower software; Waters).
Inhibitors are dissolved in DMSO (dimethylsulfoxide) to a concentration of 0.5 mM. From this stock solution serial five-fold dilutions are prepared in DMSO, which are used in the assay. The respective inhibitor solution accounts for 1% of the assay volume. […] Activities are normalized by setting the uninhibited enzyme activity to 100%. IC50 values are calculated using non-linear regression.
Purified, mutant HPPD enzymes are obtained by the methods described above. Dose response and kinetic measurements are carried out using the described HPPD activity assay. Apparent michaelis constants (Km) and maximal reaction velocities (Vmax) are calculated by non-linear regression with the software GraphPad Prism 5 (GraphPad Software, La Jolla, USA) using a substrate inhibition model. […] Weighted means (by standard error) of Km and IC50 values are calculated from at least three independent experiments.
Field performance of the optimized HPPD enzyme, which is used as a herbicide tolerance trait may depend not only on its lack of sensitivity towards HPPD inhibiting herbicides but also on its activity. To assess the potential performance of a herbicide tolerance trait a tolerance index (TI) is calculated using the following formula: […]
Easy comparison and ranking of each trait is enabled by normalizing tolerance indexes on Arabidopsis or Hordeum wild-type HPPD.

Picrophilus HPPD = assay: HPPD activity assay, wildtype enzyme; type: biochemical, Picrophilus torridus; details: Table 12, normalized to Arabidopsis HPPD
Protocol: as §1, §2, §3, §4, §5
(§6) Inhibitors are dissolved in DMSO (dimethylsulfoxide) to a concentration of 0.5 mM. From this stock solution serial five-fold dilutions are prepared in DMSO, which are used in the assay. […] IC50 values are calculated using non-linear regression. […]

Avena HPPD = assay: HPPD activity assay, wildtype enzyme; type: biochemical, Avena sativa; details: Table 12, normalized to Arabidopsis HPPD
Protocol: as §1, §2, §3, §4, §5, §6

[2] = tested on: transgenic Arabidopsis plants expressing HvHPPD L320H, P321A; assay: Greenhouse herbicide spray test, transgenic Arabidopsis plants (T2); type: in vivo, Arabidopsis thaliana; details: for Injury evaluation: P321A, two weeks after treatment
From the text: (§7) For post emergence treatment, the test plants are first grown to a height of 3 to 15 cm, depending on the plant habit, and only then treated with the herbicides. For this purpose, the test plants are either sown directly and grown in the same containers, or they are first grown separately and transplanted into the test containers a few days prior to treatment.
(§8) Additionally, T1 and T2 transgenic Arabidopsis plants can be tested for improved tolerance to N-heterocyclyl-arylcarboxamides in a greenhouse studies. Herbicide injury scoring is done 2-3 weeks after treatment and is rated on a scale of 0 to 100%, 0% being no injury and 100% being complete death.

[3] = tested on: transgenic Arabidopsis plants expressing AtHPPD M335Y, P336A, E363Q; assay: as above; type: in vivo, Arabidopsis thaliana; details: two weeks after treatment
From the text: as §7, §8

[4] = tested on: transgenic Arabidopsis plants expressing HvHPPD L320H; assay: as above; type: in vivo, Arabidopsis thaliana; details: for Injury evaluation: HvHPPD L320H, two weeks after treatment
From the text: as §7, §8

[5] = tested on: transgenic Arabidopsis plants expressing AtHPPD M335H, P336A, E363Q; assay: as above; type: in vivo, Arabidopsis thaliana; details: two weeks after treatment
From the text: as §7, §8

T1 sequence (P93836 whole entry F381L): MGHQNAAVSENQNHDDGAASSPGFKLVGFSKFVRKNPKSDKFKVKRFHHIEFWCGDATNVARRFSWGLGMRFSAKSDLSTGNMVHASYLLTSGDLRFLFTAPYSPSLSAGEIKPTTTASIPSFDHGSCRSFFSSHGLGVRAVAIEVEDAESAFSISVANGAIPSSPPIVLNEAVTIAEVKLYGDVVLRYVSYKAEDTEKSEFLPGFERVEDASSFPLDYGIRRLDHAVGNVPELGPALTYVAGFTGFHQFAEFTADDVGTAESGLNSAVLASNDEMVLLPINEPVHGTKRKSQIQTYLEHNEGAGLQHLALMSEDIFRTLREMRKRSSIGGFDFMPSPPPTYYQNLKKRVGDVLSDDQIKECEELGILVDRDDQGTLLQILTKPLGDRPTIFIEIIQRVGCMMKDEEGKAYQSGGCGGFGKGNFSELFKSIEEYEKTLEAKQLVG

In the case of `Cc1nonc1NC(=O)c1ccc(S(C)(=O)=O)c(S(C)(=O)=O)c1C` [Inhibitor 1, 2-methyl-N-(4-methyl-1,2,5-oxadiazol-3-yl)-3,4-bis(methylsulfonyl)benzamide], the “Normalized tolerance index TI Inhibitor 1” value [1] is reported as 35.2, the “Normalized tolerance index TI Inhibitor 1” value (Picrophilus HPPD) is reported as 5.4 and the “Normalized tolerance index TI Inhibitor 1” value (Avena HPPD) is reported as 1.3. The “increased tolerance versus wild-type plants” value ([2]; P321A plants, highest dose applied) was 40 fold, the Injury evaluation ([2]; 1.56 g/ha) was 0% and the Injury evaluation ([2]; 3.125 g/ha) was 0%. For the same compound, the Injury evaluation ([2]; 6.25 g/ha) was 2%, the Injury evaluation ([2]; 12.5 g/ha) was 2.5% and the Injury evaluation ([3]; 1.56 g/ha) was 12%. For the same compound, the Injury evaluation ([3]; 3.125 g/ha) was 23%, the Injury evaluation ([3]; 6.25 g/ha) was 58% and the Injury evaluation ([3]; 12.5 g/ha) was 52%. For the same compound, the “increased tolerance versus wild-type plants” value ([4]; HvHPPD L320H plants, dose of 3.125 g/ha) was about 20 fold, the Injury evaluation ([4]; 1.56 g/ha) was 0% and the Injury evaluation ([4]; 3.125 g/ha) was 5%. It also gave an Injury evaluation ([4]; 6.25 g/ha) of 20%, an Injury evaluation ([4]; 12.5 g/ha) of 27% and an Injury evaluation ([5]; 1.56 g/ha) of 3%. The Injury evaluation ([5]; 3.125 g/ha) was 13%, the Injury evaluation ([5]; 6.25 g/ha) was 42% and the Injury evaluation ([5]; 12.5 g/ha) was 42%.
